Assay results published in PMC6222696, “Inhibition of UGT2B7 Enzyme Activity in Human and Rat Liver Microsomes by Herbal Constituents” (Molecules : A Journal of Synthetic Chemistry and Natural …, 2018).
Values joined by “and” are separate entries in the source; they are usually repeats but may differ in a detail not shown here. Equal entries are not always repeated. Where two headings read alike, the source gives them in different places.

What was measured:
UGT2B7 [1] = molecular target: T1, UGT2B7 (Homo sapiens, UniProt P16662); experiment: Inhibition of ZDV glucuronidation in human liver microsomes (HLM)
T1 sequence (P16662 24-529): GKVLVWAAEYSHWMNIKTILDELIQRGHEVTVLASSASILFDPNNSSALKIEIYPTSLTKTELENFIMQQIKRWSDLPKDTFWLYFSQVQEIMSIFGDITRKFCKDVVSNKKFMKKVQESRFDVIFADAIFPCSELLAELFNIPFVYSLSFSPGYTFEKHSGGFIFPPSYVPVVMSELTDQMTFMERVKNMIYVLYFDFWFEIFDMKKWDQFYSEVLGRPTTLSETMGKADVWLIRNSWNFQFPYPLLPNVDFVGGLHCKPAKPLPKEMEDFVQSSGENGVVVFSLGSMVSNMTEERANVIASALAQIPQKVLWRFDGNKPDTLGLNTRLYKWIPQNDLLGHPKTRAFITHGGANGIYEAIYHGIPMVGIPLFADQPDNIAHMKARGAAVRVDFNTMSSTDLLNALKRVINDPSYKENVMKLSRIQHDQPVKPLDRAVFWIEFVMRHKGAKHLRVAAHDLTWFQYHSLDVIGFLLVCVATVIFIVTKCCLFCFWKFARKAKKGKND
Method: (§1) An incubation mixture in a total volume of 200 µL contained 100 mM Tris-HCl buffer at pH 7.4, 5 mM MgCl2, microsomal protein (0.2 mg/mL for HLM assay and 2 mg/mL for RLM assay) and 0.1 mg/mg protein of Brij58 was kept in ice for 10 min. […] The incubation volume was made up to 200 µL with distilled water in a 1.5 mL polypropylene microcentrifuge tube. After pre-incubation at 37 °C for 10 min in a shaking water bath, a reaction was started by the addition of 5 mM UDPGA and was further incubated (120 min for HLM and 90 min for RLM). Following the incubation, the reaction was terminated by adding 100 µL ice-cold acetonitrile containing 75 µM of 4MUG as the internal standard (IS). The sample was allowed for protein precipitation on ice for 15 min, then vortexed shortly, and centrifuged at 15,000 rpm for 10 min at 4 °C. Supernatant was transferred into HPLC vials for HPLC analysis.
Stock solutions for the herbal constituents were prepared at concentrations of 50 mM by dissolving them in their respective solvents. […] Working solutions were prepared at concentrations of 5 mM in distilled water so that the final organic solvent concentrations in incubations were less than 2% (v/v).
(§2) Thirteen herbal constituents were screened for inhibition of ZDV glucuronidation in HLM and RLM. Screening experiments using three concentrations (1 µM, 10 µM and 100 µM) of each herbal constituent were conducted to screen for the inhibitory potential of the constituent. All incubation assays were performed in triplicate (n = 3).
(§3) The ZDVG concentration formed was quantified using the calibration curve of ZDVG. Final UGT2B7 specific activity value was expressed in pmol/min/mg protein. […] Km and Vmax were determined using the same software under the enzyme-kinetic inhibition (substrate inhibition) model.

UGT nonspecific [2] = system: UGT nonspecific; parameters: method as in ref 19-24 (andrographolide); 35-37 (mitragynine); 26, 27, 29, 31, 38, 39 (quercetin); conditions: rats; ref 19-24 (andrographolide); 35-37 (mitragynine); 26, 27, 29, 31, 38, 39 (quercetin); cited from earlier work
UGT enzymes = conditions: cited from earlier work; for inhibition of UGT enzymes in HLM with 4MU as substrate (in words): 4MU nonspecific UGT substrate
[3] = cited from earlier work; for maximum plasma concentration: humans
UGT2B7 [4] = experiment: Inhibition of ZDV glucuronidation in rat liver microsomes (RLM); conditions: for IC50 at 90 min: rat
Method: The livers were rinsed promptly with ice-cold distilled water followed by ice-cooled 67 mM potassium phosphate buffer (pH 7.4) containing 1.15% (w/v) KCl after removal from the rats. The livers were then homogenized in three volumes of the same buffer using Potter-Elvehjem homogenizer after blotted dry and weighed. After that, the homogenate was centrifuged at 12,500× g for 20 min at 4 °C. The resultant supernatant was further centrifuged at 100,000× g for 60 min at 4 °C to obtain the microsomal pellets. Each pellet obtained was scrapped and reconstituted in 0.3 mL of 67 mM potassium phosphate buffer with 1.15% (w/v) KCl and 20% (v/v) glycerol before homogenizing them together to obtain pooled microsomes. Microsomes were then transferred into several microfuge tubes and stored at −80 °C until used.
as §1
Stock solutions for the herbal constituents were prepared at concentrations of 50 mM by dissolving them in their respective solvents. Andrographolide, arecoline, arecaidine, mangiferin and vanillin were dissolved in distilled water. […] Working solutions were prepared at concentrations of 5 mM in distilled water so that the final organic solvent concentrations in incubations were less than 2% (v/v).
as §2
The ZDVG concentration formed was quantified using the calibration curve of ZDVG. Final UGT2B7 specific activity value was expressed in pmol/min/mg protein.

UGT2B7 [5] = conditions: cited from earlier work; for effect on UGT2B7 in vitro (in words): 19 (curcumin), 37, 70 (ketamine), 19, 20, 22, 23 (andrographolide); for UGT2B7, in vitro study: supersomes
UGT2B10 = system: UGT2B10; parameters: method as in ref 26-30 (kaempferol); 26, 27, 29, 31, 38, 39 (quercetin); conditions: supersomes; ref 26-30 (kaempferol); 26, 27, 29, 31, 38, 39 (quercetin); cited from earlier work
UGT1A1 [6] = system: UGT1A1; parameters: method as in ref 26-30 (kaempferol); 35-37 (mitragynine); 26, 27, 29, 31, 38, 39 (quercetin); conditions: supersomes; ref 26-30 (kaempferol); 35-37 (mitragynine); 26, 27, 29, 31, 38, 39 (quercetin); cited from earlier work
UGT1A1 [7] = system: UGT1A1; parameters: method as in PMID 18001207, PMID 19889883, PMID 25008344, PMID 24553666, PMID 29574133; conditions: mice; cited from earlier work
UGT1A6 [8] = system: UGT1A6; parameters: method as in ref 19-24 (andrographolide); 26-30 (kaempferol); 32-34 (mangiferin); 26, 27, 29, 31, 38, 39 (quercetin); conditions: supersomes; ref 19-24 (andrographolide); 26-30 (kaempferol); 32-34 (mangiferin); 26, 27, 29, 31, 38, 39 (quercetin); cited from earlier work
UGT1A3 = system: UGT1A3; parameters: method as in ref 19-24 (andrographolide); 26-30 (kaempferol); 32-34 (mangiferin); 26, 27, 29, 31, 38, 39 (quercetin); conditions: supersomes; ref 19-24 (andrographolide); 26-30 (kaempferol); 32-34 (mangiferin); 26, 27, 29, 31, 38, 39 (quercetin); cited from earlier work
UGT1A9 = conditions: HLM, supersomes, cited from earlier work
UGT nonspecific [9] = system: UGT nonspecific; parameters: method as in ref 26-30 (kaempferol); 26, 27, 29, 31, 38, 39 (quercetin); conditions: mammalian cells; ref 26-30 (kaempferol); 26, 27, 29, 31, 38, 39 (quercetin); cited from earlier work
UGT1A1 [10] = system: UGT1A1; parameters: method as in ref 26-30 (kaempferol); 26, 27, 29, 31, 38, 39 (quercetin); conditions: mammalian cells; ref 26-30 (kaempferol); 26, 27, 29, 31, 38, 39 (quercetin); cited from earlier work
UGT1A6 [11] = system: UGT1A6; parameters: method as in PMID 18001207, PMID 19889883, PMID 24553666, PMID 22958586, PMID 10660112; conditions: mammalian cells; cited from earlier work
UGT2B17 = conditions: supersomes; ref 31 (gallic acid); 32-34 (mangiferin); 26, 27, 29, 31, 38, 39 (quercetin); cited from earlier work
CYP3A4 = system: CYP3A4; parameters: method as in PMID 15270556; conditions: in vitro; cited from earlier work
[12] = system: gluthathione-S-transferases enzyme; parameters: method as in PMID 15304356; conditions: in vitro; cited from earlier work
UGT2B7 [13] = system: UGT2B7; parameters: method as in PMID 29425147; conditions: by inhibiting UGT2B7 activity; cited from earlier work
UGT nonspecific [14] = system: UGT nonspecific; parameters: method as in PMID 28479734; conditions: system not given; cited from earlier work
UGT2B7 [15] = molecular target: T1, UGT2B7; parameters: method as in PMID 24631340; conditions: non-competitive inhibition; read-out: inhibition constant (Ki) for ZDV glucuronidation in HLM; cited from earlier work
HLM = system: HLM; parameters: method as in PMID 25204783; conditions: cited from earlier work
UGT2B7 [16] = molecular target: T1, UGT2B7; experiment: in vitro; conditions: HLM; for microsomal CLint: human liver microsomes, pH 7.4, CLint, Vmax/Km; for Km at 120 min: pH 7.4, Km, mean ± SD
Method: An incubation mixture in a total volume of 200 µL contained 100 mM Tris-HCl buffer at pH 7.4, 5 mM MgCl2, microsomal protein (0.2 mg/mL for HLM assay and 2 mg/mL for RLM assay) and 0.1 mg/mg protein of Brij58 was kept in ice for 10 min. […] The incubation volume was made up to 200 µL with distilled water in a 1.5 mL polypropylene microcentrifuge tube. After pre-incubation at 37 °C for 10 min in a shaking water bath, a reaction was started by the addition of 5 mM UDPGA and was further incubated (120 min for HLM and 90 min for RLM). […] The sample was allowed for protein precipitation on ice for 15 min, then vortexed shortly, and centrifuged at 15,000 rpm for 10 min at 4 °C. Supernatant was transferred into HPLC vials for HPLC analysis.
Once the initial velocity conditions had been established, the ZDV concentrations were varied to generate a saturation curve for determination of Michaelis constant (Km) and maximal velocity of reaction (Vmax) values of ZDV glucuronidation in HLM and RLM. The experiments were conducted in the absence and presence of BSA. Under optimized conditions, substrate concentrations used in incubation assay were varied from 0–5 mM of ZDV for HLM assay and 0–30 mM of ZDV for RLM assay. All assays were performed in triplicates (n = 3).
as §3

[17] = humans, cited from earlier work
[18] = rats, cited from earlier work
UGT2B7 [19] = experiment: ZDV glucuronidation kinetics in RLM; conditions: for Km at 90 min / microsomal CLint: rat; for Km at 90 min: pH 7.4, Km; for microsomal CLint: rat liver microsomes (pooled), pH 7.4, CLint, Vmax/Km
Method: as §1
Once the initial velocity conditions had been established, the ZDV concentrations were varied to generate a saturation curve for determination of Michaelis constant (Km) and maximal velocity of reaction (Vmax) values of ZDV glucuronidation in HLM and RLM. The experiments were conducted in the absence and presence of BSA. Under optimized conditions, substrate concentrations used in incubation assay were varied from 0–5 mM of ZDV for HLM assay and 0–30 mM of ZDV for RLM assay. All assays were performed in triplicates (n = 3). The enzyme kinetic parameters (Km and Vmax) were obtained by fitting kinetic models to the experimental data using GraphPad Prism version 5.01 for Windows.
as §3

[20] = IC50 for inhibition of ZDV glucuronidation in HLM, human liver microsomes, ZDV as UGT2B7 probe substrate, 1% (w/v) BSA
[21] = concentration showing 50% inhibition of ZDV glucuronidation in HLM (screening), screening at 1 µM, 10 µM and 100 µM

Molecule: CCC1CN2CCc3c([nH]c4cccc(OC)c34)C2CC1/C(=C\OC)C(=O)OC (stereo not drawn) [mitragynine]
- IC50 (UGT2B7 [1]; [20]): 8.11 ± 4.48 µM
- IC50 (UGT2B7 [1]; [21]): < 100 µM
- UGT nonspecific, in vivo/ex vivo study (UGT nonspecific [2]): UGT nonspecific ↑ (rats)
- inhibition of 4MU glucuronidation in HLM (UGT enzymes; at a concentration of 1 μM): approximately 30 % of control activity
- IC50 (UGT enzymes; read-out: IC50 for 4MU glucuronidation in HLM): > 1000 µM
- maximum plasma concentration ([3]; M. speciosa tea with 11 mg mitragynine for seven days then 23 mg on the eighth day): 0.105 µg/mL and 0.26 µM
- IC50 at 90 min (UGT2B7 [4]; pH 7.4, IC50 for inhibition of ZDV glucuronidation in RLM, rat liver microsomes, ZDV as probe substrate, 1% (w/v) BSA): 51.2 ± 5.95 µM
- IC50 at 90 min (UGT2B7 [4]; pH 7.4, concentration inhibiting ZDV glucuronidation in RLM higher than 50% (screening), screening at 1 µM, 10 µM and 100 µM): < 100 µM

Molecule: kaempferol-3-O-rutinoside [kaempferol-3-rutinoside]
- inhibition of UGT enzymes in HLM with 4MU as substrate (in words) (UGT enzymes): did not significantly inhibit

Molecule: CNC1(c2ccccc2Cl)CCCCC1=O (stereo not drawn) [ketamine, reference compound]
- effect on UGT2B7 in vitro (in words) (UGT2B7 [5]): inhibit

Molecule: O=c1c(O)c(-c2ccc(O)cc2)oc2cc(O)cc(O)c12 [Kaempferol]
- UGT2B10, in vitro study (UGT2B10): UGT2B10 ↓ (supersomes)
- UGT1A1, in vitro study (UGT1A1 [6]): UGT1A1 ↓ (supersomes)
- UGT1A1, in vivo/ex vivo study (UGT1A1 [7]): UGT1A1 ↑ (mice)
- UGT1A6, in vitro study (UGT1A6 [8]): UGT1A6 ↓ (supersomes)
- UGT1A3, in vitro study (UGT1A3): UGT1A3 ↓ (supersomes)
- UGT1A9, in vitro study (UGT1A9; HIM): UGT1A9 ↓ (HLM, HIM, supersomes)
- UGT nonspecific, in vitro study (UGT nonspecific [9]): UGT nonspecific ↑ (mammalian cells)
- UGT1A1, in vitro study (UGT1A1 [10]): UGT1A1 ↑ (mammalian cells)
- UGT2B7, in vitro study (UGT2B7 [5]; ref 26-30 (kaempferol), 35-37 (mitragynine)): UGT2B7 ↓ (supersomes)

Molecule: O=c1c(O)c(-c2ccc(O)c(O)c2)oc2cc(O)cc(O)c12 [Quercetin, quercetin]
- UGT1A1, in vitro study (UGT1A1 [6]): UGT1A1 ↓ (supersomes)
- UGT nonspecific, in vivo/ex vivo study (UGT nonspecific [2]): UGT nonspecific ↑ (rat)
- UGT1A6, in vitro study (UGT1A6 [11]): UGT1A6 ↑ (mammalian cells)
- UGT2B17, in vitro study (UGT2B17): UGT2B17 ↓ (supersomes)
- UGT1A3, in vitro study (UGT1A3): UGT1A3 ↓ (supersomes)
- UGT1A9, in vitro study (UGT1A9; RLM): UGT1A9 ↓ (HLM, RLM, supersomes)
- UGT nonspecific, in vitro study (UGT nonspecific [9]): UGT nonspecific ↑ (mammalian cells)
- UGT1A1, in vitro study (UGT1A1 [10]): UGT1A1 ↑ (mammalian cells)

Molecule: C/C1=C\CC(C)(C)/C=C/C(=O)/C(C)=C/CC1 [zerumbone]
- IC50 (UGT2B7 [1]; [20]): 4.57 ± 0.23 µM
- IC50 (UGT2B7 [1]; [21]): < 100 µM
- effect on metabolism mediated by CYP3A4 (in words) (CYP3A4): moderately inhibit
- effect on Phase II gluthathione-S-transferases enzyme (in words) [12]: induce
- IC50 at 90 min (UGT2B7 [4]; rat liver microsomes (pooled), pH 7.4, probe zidovudine (ZDV), at or below its Km, IC50 for inhibition of ZDV glucuronidation in RLM, rat liver microsomes, ZDV as probe substrate, 1% (w/v) BSA): 8.14 ± 2.12 µM
- IC50 at 90 min (UGT2B7 [4]; rat liver microsomes (pooled), pH 7.4, probe zidovudine (ZDV), at or below its Km, concentration inhibiting ZDV glucuronidation in RLM higher than 50% (screening), screening at 1 µM, 10 µM and 100 µM): < 100 µM

Molecule: C[C@@H]1[C@H]2c3cc4c(cc3O[C@@]35OCOC3=CC(=O)[C@H](C[C@H]1C)[C@@H]25)OCO4 [sauchinone]
- effect on zidovudine (ZDV) concentration in mice blood (in words) (UGT2B7 [13]): elevated

Molecule: COc1cc(C=O)ccc1O [Vanillin]
- UGT nonspecific, in vitro study (UGT nonspecific [14]): UGT nonspecific ↓

Molecule: C=C1CC[C@@H]2[C@](C)(CO)[C@H](O)CC[C@@]2(C)[C@@H]1C/C=C1/C(=O)OC[C@H]1O [Andrographolide, andrographolide]
- IC50 (UGT2B7 [1]; [20]): 6.18 ± 1.27 µM
- IC50 (UGT2B7 [1]; [21]): < 100 µM
- UGT nonspecific, in vivo/ex vivo study (UGT nonspecific [2]): UGT nonspecific ↑ (rats)
- Ki (UGT2B7 [15]): 6.1 µM
- inhibition of UGT enzymes in HLM with 4MU as substrate (in words) (UGT enzymes): weak inhibition
- maximum plasma concentration ([3]; oral 20 mg of andrographolide four times a day): 1.34 µg/mL and 3.8 µM
- maximum concentration in plasma ([3]; ingestion of 32.64 mg of andrographolide three times a day): 32.41 ng/mL and 0.09 µM
- maximum concentration in plasma ([3]; ingestion of 200 mg of andrographolide three times a day): 58.6 ng/mL and 0.17 µM
- inhibition of ZDV glucuronidation in RLM (in words) (UGT2B7 [4]; rat liver microsomes): weak inhibition
- glucuronidation as a substrate in HLM (in words) (HLM): glucuronidated
- effect on UGT2B7 in vitro (in words) (UGT2B7 [5]): inhibit
- UGT2B7, in vitro study (UGT2B7 [5]; HLM): UGT2B7 ↓ (HLM, supersomes)

Molecule: Cc1cn([C@H]2C[C@H](N=[N+]=[N-])[C@@H](CO)O2)c(=O)[nH]c1=O [zidovudine, 3′-Azido-3′-deoxythymidine]
- microsomal CLint (UGT2B7 [16]; with 1% BSA): 1.65 µL/min/mg
- microsomal CLint (UGT2B7 [16]; without 1% BSA): 0.32 µL/min/mg
- Km at 120 min (UGT2B7 [16]; with 1% BSA): 0.88 ± 0.05 mM
- Km at 120 min (UGT2B7 [16]; without 1% BSA): 3.4 ± 0.7 mM
- in vivo systemic clearance ([17]; for 70 kg of man): 1.01 L/h/kg
- dose excreted as glucuronides [17]: approximately 75%
- in vivo systemic clearance ([18]; for 0.25 kg of rat): 0.18 L/h/kg
- dose excreted as glucuronides [18]: ~10%
- Km at 90 min (UGT2B7 [19]; with 1% BSA, mean ± SD): 6.77 ± 0.6 mM
- Km at 90 min (UGT2B7 [19]; without 1% BSA, mean ± SD): 8.84 ± 1.19 mM
- microsomal CLint (UGT2B7 [19]; with 1% BSA): 0.16 µL/min/mg
- microsomal CLint (UGT2B7 [19]; without 1% BSA): 0.09 µL/min/mg
- Vmax (UGT2B7 [19]; without 1% BSA, mean ± SD): 770 ± 39.82 pmol/mg/min
